Data published in paper PMC11050070, “Chemical Modifications to Enhance the Drug Properties of a VIP Receptor Antagonist (ANT) Peptide” (International Journal of Molecular Sciences, 2024).
Where no end group is shown, it is not given here.

Test: Plasma stability T cell activation study
Type: in vitro ADME
Details: 200 μM peptide mixed 1:1 with healthy donors' plasma, 37 °C, aliquots at 24, 48, 72, 96 hrs; read-out pooled human T cell activation at 10 μM; three donors' plasma; retained up to 96 h (longest time tested); Figure S1
Description: 1.3 Plasma Stability T Cell Activation Study
200 μM ANT308 or 200 μM ANT308K-PEG were mixed with healthy donors’ plasma at 1:1 ratio, followed by incubation at 37 °C. Aliquots (150 μL) were collected at 24 hrs, 48 hrs, 72 hrs, and 96 hrs and stored at -80 °C before pooled human T cells activation assay. Assays were performed with three different donor ’s plasma.
Activated T cells Activated T cells
Non-Activated T cells Non-Activated T cells […]
Diffe rentDonors’ plasma Diffe rentDonors’ plasma
Pre-incubation Time ( hrs) Pre-incubation Time ( hrs)
Figure S1A-F: Plasma stability and human T cells activation. After incubation with healthy donors’ plasma at 37 °C for 24hrs, 48hrs, 72hrs, and 96hrs. 10 μM ANT308 (A,C,E) or 10 μM ANT308K-PEG (B,D,F) were directly mixed with isolated & pooled human T cells with the […]

Question: Which “time of incubation in human plasma after which the ability to activate human T cells is retained” value does the source give for “KPRRPYTSDYTRLRKQMAVKKYLNLILN-NH2 [ANT308]” here?
Answer: ≥ 96 h
